Values of other authors in EP3964225A1 (priority 2020, dated 2022).

Tested on: B cell growth
Conditions: eight p17 peptides tested

GARASVLSGGELDRWEKIRL [peptide F1, p17-derived peptide, aminoacids 2 to 21 of p17]
cell growth promoting activity: the only one endowed with cell growth promoting activity
